Non-standard residues stand in square brackets, D forms with d. Residues, ends and D or L forms follow the SMILES beside them. Oic = O=C(O)[C@@H]1C[C@@H]2CCCC[C@@H]2N1; d2Nal = N[C@H](Cc1ccc2ccccc2c1)C(=O)O; Hyp = O=C(O)[C@@H]1C[C@@H](O)CN1; dTic = O=C(O)[C@H]1Cc2ccccc2CN1; 2Thi = N[C@@H](Cc1cccs1)C(=O)O
Legend:
[1] = biological target: T1, human B1 receptor (Homo sapiens, UniProt P46663); assay: cell-based; settings: Human umbilical vein B1 receptor pA2, vs desArg9BK, HOE140 400 nmol/L present
T1 sequence (P46663 1-353): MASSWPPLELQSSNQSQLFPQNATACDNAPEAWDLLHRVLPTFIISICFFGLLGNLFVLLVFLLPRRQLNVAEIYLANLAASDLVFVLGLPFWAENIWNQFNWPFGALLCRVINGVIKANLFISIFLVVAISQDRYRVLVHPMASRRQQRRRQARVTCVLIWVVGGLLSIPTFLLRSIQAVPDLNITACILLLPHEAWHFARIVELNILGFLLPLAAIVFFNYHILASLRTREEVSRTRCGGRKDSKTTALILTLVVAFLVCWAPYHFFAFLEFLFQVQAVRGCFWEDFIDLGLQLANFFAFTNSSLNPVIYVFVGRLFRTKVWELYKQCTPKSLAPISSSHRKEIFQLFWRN
Text: (§1) Tissues were taken from New Zealand white rabbits (1.5–2.5 kg) and Dunken Hartley guinea pigs (250–350 g) of either sex, killed by stunning and exsanguination. Umbilical cords were taken from healthy women 22–40 years old after spontaneous delivery at term. The rabbit jugular vein (RbJV), the guinea pig ileum (GPI), two preparations containing B2 receptors, the rabbit aorta (RbA) (B1 receptor) and the human umbilical vein (HUV), a mixed preparation containing both B1 and B2 receptors^10, were used. Helical strips of RbJV treated with 1 μmol/L of captopril to avoid peptide degradation by the angiotensin-converting enzyme (ACE), alias kininase II were prepared according to Gaudreau et al.^11 Helical strips of RbA devoid of endothelium were prepared according to Furchgott and Bhadrakom^12. Longitudinal segments of GPI were prepared with the procedure described by Rang^13. Helical strips of HUV were prepared according to Gobeil et al.^10. The tissues were suspended in 10-ml organ baths containing warm (37EC), oxygenated (95% O2–5% CO2) Krebs solution of the following composition in mmol/L; NaCl: 118.1; KCl: 4.7; CaCl26H2O: 2.5; KH2PO4: 1.2; MgSO47H2O: 1.18; NaHCO3: 25.0 and D-Glucose: 5.5. The RbA and the HUV were stretched with an initial tension of 2 g, whereas the RbJV and the GPI were loaded with 0.5 g. Changes of tension produced by the various agents were measured with Grass isometric transducers (model FT 03C, Grass Instrument Co., Quincy, Mass.). […] Before testing the drugs, the tissues were allowed to equilibrate for 60–120 min during which time the tissues were repeatedly washed and the tension readjusted every 15 min.
(§2) At the beginning of each experiment, a submaximal dose of bradykinin (BK) (9 nmol/L), was applied repeatedly on the RbJV, the GPI or the HUV to ensure that tissues responded with stable contractions. […] A similar protocol was used for the HUV.
(§3) Repeated applications of a singl and double concentration of BK (on RbJV, GPI and HUV) and of desArg^9BK (RbA and HUV) were made in the absence and in presence of the various peptides to evaluate their apparent affinities as antagonists, in terms of pA2 (-log10 of the molar concentration of antagonist that reduces the effect of a double concentration of agonist to that of a single one)^14. The antagonists were applied 10 min before measuring the myotropic effects of either BK (the B2 receptor agonist) or desArg^9BK (the B1 receptor agonist). […] All kinin antagonists were initially applied to tissues at concentration of 10 μg/mL to measure their potential agonistic activities (α^E) in comparison with BK (in the B2 receptor preparations) or desArg^9BK (in the B1 receptor preparations).

[2] = system: T2, angiotensin-converting enzyme (ACE); assay: Metabolic degradation by purified angiotensin-converting enzyme, HPLC analysis; format: in vitro ADME, rabbit; settings: rabbit, isolated enzyme ace, pH 7.5
T2 construct: purified angiotensin-converting enzyme (ACE) from rabbit lungs; purchased Sigma, St-Louis, Mo; host or cells: purified from rabbit lungs
Experimental: The metabolic stability of various kinin-related peptides was evaluated by incubating the peptide in the presence of purified angiotensin-converting enzyme (ACE) from rabbit lungs (purchased from Sigma, St-Louis, Mo.) dissolved in phosphate buffered saline (PBS) (50 mmol/L, pH 7.5 containing 300 mmoL/L NaCl); the final concentration of enzyme was 45 μg/mL. The experimental protocol for the measurement of ACE activity has been described elsewhere^15,16. Briefly, 200 μmol/L of peptides (40 μL) were placed in a PBS buffer and incubated for 5 min at 37EC before adding 8.5 μL of ACE (total volume of the reaction medium; 190 μL). Samples were withdrawn at 30 min intervals, immersed in boiling water for 5 min, then cooled on ice and centrifuged (5 min) before proceeding to analysis of peptides by high pressure liquid chromatography (HPLC). Results of ACE metabolism are expressed in percent of kinin degradation following the incubation (30 min) of kinin substrates with the enzyme.
Pure peptides and metabolic products were analysed by reverse-phas HPLC on a C18 μBondapak column (4.6 mm×25 cm) (Waters) of 10-μm particle size. The peptides and their fragments were eluted at the rate of 2.0 mL/min. with a linear gradient ranging from 5 to 65% of acetonitrile/TFA 0.05%/water over 20 min. at room temperature. The elution positions of these peptides were determined by following the absorbance at 214 nm. For each assay, 50 μL of the reaction medium (treated or not with ACE) were extracted and injected into the column. Concentrations of the peaks products, different from the peaks of the peptide substrate, were estimated using a computer software program (Baseline 810; Waters) that controlled also all the chromatography operations. Isolated metabolites and substrates were collected and identified by Electrospray mass spectrometry (positive mode).

[3] = biological target: T3, B2 receptor (Cavia porcellus, UniProt O70526); assay: cell-based; settings: for G.P.I. pA2: vs BK, Inactive = no detectable antagonistic effect at ≦ 10 μg/ml, F.ag. full agonist, P.ag. partial agonist
T3 sequence (O70526 1-372): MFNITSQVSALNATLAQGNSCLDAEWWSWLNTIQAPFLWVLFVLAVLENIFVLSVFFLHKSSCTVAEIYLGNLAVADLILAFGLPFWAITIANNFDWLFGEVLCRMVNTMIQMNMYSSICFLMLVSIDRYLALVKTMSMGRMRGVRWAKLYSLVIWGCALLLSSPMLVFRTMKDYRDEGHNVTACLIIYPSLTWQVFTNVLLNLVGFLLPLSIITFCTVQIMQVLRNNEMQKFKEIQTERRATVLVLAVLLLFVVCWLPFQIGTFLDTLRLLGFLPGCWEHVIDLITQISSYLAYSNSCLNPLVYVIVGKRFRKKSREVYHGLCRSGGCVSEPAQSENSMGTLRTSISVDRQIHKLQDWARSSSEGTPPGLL
Text: as §1, §2, §3

[4] = biological target: T4, B1 receptor (Oryctolagus cuniculus, UniProt P48748); assay: cell-based; settings: Rb.A. pA2, apparent affinity as antagonist vs desArg9BK; antagonist applied 10 min before; Inactive = no detectable antagonistic effect at ≦ 10 μg/ml
T4 sequence (P48748 1-352): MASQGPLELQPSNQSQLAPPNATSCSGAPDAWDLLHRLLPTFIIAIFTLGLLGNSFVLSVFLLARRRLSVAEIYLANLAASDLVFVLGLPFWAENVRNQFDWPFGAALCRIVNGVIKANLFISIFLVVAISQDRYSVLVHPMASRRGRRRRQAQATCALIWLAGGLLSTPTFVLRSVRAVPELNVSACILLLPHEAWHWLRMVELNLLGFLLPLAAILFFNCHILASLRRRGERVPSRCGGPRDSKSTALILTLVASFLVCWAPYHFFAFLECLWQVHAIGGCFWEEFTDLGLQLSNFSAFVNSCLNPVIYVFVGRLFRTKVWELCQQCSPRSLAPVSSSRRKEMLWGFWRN
Text: as §1, §2, §3

[5] = biological target: T5, B2 receptor (Oryctolagus cuniculus, UniProt Q28642); settings: vs BK; captopril 1 μmol/L; Inactive = no detectable antagonistic effect at ≦ 10 μg/ml
T5 sequence (Q28642 1-367): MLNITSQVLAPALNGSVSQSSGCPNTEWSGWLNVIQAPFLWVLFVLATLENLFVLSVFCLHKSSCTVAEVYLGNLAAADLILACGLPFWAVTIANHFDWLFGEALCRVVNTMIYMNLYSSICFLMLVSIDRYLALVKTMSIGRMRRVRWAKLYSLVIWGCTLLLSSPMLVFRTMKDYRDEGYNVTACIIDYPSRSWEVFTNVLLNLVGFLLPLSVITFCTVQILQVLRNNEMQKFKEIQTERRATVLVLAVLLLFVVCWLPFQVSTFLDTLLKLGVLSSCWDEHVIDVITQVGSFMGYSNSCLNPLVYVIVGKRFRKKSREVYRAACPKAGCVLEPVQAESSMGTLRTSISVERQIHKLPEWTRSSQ

[6] = biological target: T5, B2 receptor; assay: cell-based
Text: as §1, §2, §3

Row | SMILES | Kb [1] [µM] | metabolised at 0.5 h, 42.1 μmol/L [2] [%] | G.P.I. pA2 [3] | Kb [4] [µM] | Rb.J.V. pA2 [5] | Kb [6] [µM] | Kb [3] [µM] | metabolised at 0.5 h [2] [%]
1 | CC[C@H](C)[C@H](NC(=O)[C@@H](Cc1ccc2ccccc2c1)NC(=O)[C@H](CO)NC(=O)[C@H](Cc1ccccc1)NC(=O)CNC(=O)[C@@H]1CCCN1C(=O)[C@@H]1CCCN1C(=O)[C@H](CCCN=C(N)N)NC(=O)[C@H](CCCCN)NC(C)=O)C(=O)O [AcLys(D-βNal^7, Ile^8)desArg^9BK] (Ac-KRPPGFS[d2Nal]I-OH) | 0.00324 | – | – | – | – | – | – | –
2 | CC(C)C[C@H](NC(=O)[C@@H]1CCCN1C(=O)[C@H](CO)NC(=O)[C@H](Cc1ccccc1)NC(=O)CNC(=O)[C@@H]1CCCN1C(=O)[C@@H]1CCCN1C(=O)[C@@H](N)CCCNC(=N)N)C(=O)O [Compound 1, (Leu^8)desArg^9BK, reference compound] | – | 83 ± 2 | Inactive | 0.0575 | Inactive | – | – | –
3 | CC(C)C[C@H](NC(=O)[C@@H]1CCCN1C(=O)[C@H](CO)NC(=O)[C@H](Cc1ccccc1)NC(=O)CNC(=O)[C@@H]1CCCN1C(=O)[C@@H]1CCCN1C(=O)[C@H](CCCNC(=N)N)NC(=O)[C@@H](N)CCCCN)C(=O)O [Compound 2, Lys(Leu^8)desArg^9BK, reference compound] | – | 74 ± 2 | Inactive | – | Inactive | – | – | –
4 | N=C(N)NCCC[C@@H](N)C(=O)N[C@@H](CCCNC(=N)N)C(=O)N1CCC[C@H]1C(=O)N1C[C@H](O)C[C@H]1C(=O)NCC(=O)N[C@@H](Cc1ccccc1)C(=O)N[C@@H](CO)C(=O)N[C@H](Cc1ccccc1)C(=O)N[C@@H](Cc1ccccc1)C(=O)O [Compound 6, D-Arg(Hyp^3, D-Phe^7)desArg^9BK] (H-[dR]RP[Hyp]GFS[dF]F-OH; N-terminus and C-terminus assumed) | – | – | – | 0.363 | – | 2.34 | > 8.91 | –
5 | CC(C)C[C@H](NC(=O)[C@@H](Cc1ccccc1)NC(=O)[C@H](CO)NC(=O)[C@H](Cc1ccccc1)NC(=O)CNC(=O)[C@@H]1C[C@@H](O)CN1C(=O)[C@@H]1CCCN1C(=O)[C@H](CCCNC(=N)N)NC(=O)[C@H](N)CCCNC(=N)N)C(=O)O [Compound 7, D-Arg(Hyp^3, D-Phe^7, Leu^8)desArg^9BK] (H-[dR]RP[Hyp]GFS[dF]L-OH; N-terminus and C-terminus assumed) | – | – | Inactive | 0.275 | – | 2.09 | – | –
6 | CC(C)C[C@H](NC(=O)[C@H]1Cc2ccccc2CN1C(=O)[C@H](CO)NC(=O)[C@H](Cc1ccccc1)NC(=O)CNC(=O)[C@@H]1CCCN1C(=O)[C@@H]1CCCN1C(=O)[C@H](CCCNC(=N)N)NC(=O)[C@@H](N)CCCCN)C(=O)O [Compound 10, Lys(D-Tic^7, Leu^8)desArg^9BK] (H-KRPPGFS[dTic]L-OH; N-terminus and C-terminus assumed) | – | – | – | 0.316 | – | > 6.31 | – | –
7 | C[C@H](NC(=O)[C@H]1Cc2ccccc2CN1C(=O)[C@H](CO)NC(=O)[C@H](Cc1ccccc1)NC(=O)CNC(=O)[C@@H]1CCCN1C(=O)[C@@H]1CCCN1C(=O)[C@H](CCCNC(=N)N)NC(=O)[C@H](N)CCCNC(=N)N)C(=O)O [Compound 15, D-Arg(D-Tic^7, Ala^8)desArg^9BK] (H-[dR]RPPGFS[dTic]A-OH; N-terminus and C-terminus assumed) | – | – | – | > 9.55 | Inactive | – | – | 21 ± 1
8 | N=C(N)NCCC[C@@H](N)C(=O)N[C@@H](CCCNC(=N)N)C(=O)N1CCC[C@H]1C(=O)N1C[C@H](O)C[C@H]1C(=O)NCC(=O)N[C@@H](Cc1ccccc1)C(=O)N[C@@H](CO)C(=O)N1Cc2ccccc2C[C@@H]1C(=O)N[C@@H](Cc1ccccc1)C(=O)O [Compound 16, D-Arg(Hyp^3, D-Tic^7)desArg^9BK] (H-[dR]RP[Hyp]GFS[dTic]F-OH; N-terminus and C-terminus assumed) | – | – | – | 0.186 | – | > 2.19 | – | 0
9 | N=C(N)NCCC[C@H](N)C(=O)N1CCC[C@H]1C(=O)N1C[C@H](O)C[C@H]1C(=O)NCC(=O)N[C@@H](Cc1cccs1)C(=O)N[C@@H](CO)C(=O)N1Cc2ccccc2C[C@@H]1C(=O)N1[C@H](C(=O)O)C[C@@H]2CCCC[C@@H]21 [Compound 32, (Hyp^3, Thi^5, D-Tic^7, Oic^8)desArg^9BK, reference compound] (H-RP[Hyp]G[2Thi]S[dTic][Oic]-OH; N-terminus and C-terminus assumed) | – | – | – | 0.479 | – | 0.447 | > 7.59 | 0

Source: US7041785B1, “B1-bradykinin receptor antagonists and use thereof” (Université de Sherbrooke, priority 1996, dated 2006)
